In PMC2868067 (Molecular cancer therapeutics, 2010):

System: kinases in the Src family
Conditions: read-out: apparent IC50, Srctide; multiplexed, treated K-562 lysates (Figure 6A)

Cc1nc(Nc2ncc(C(=O)Nc3c(C)cccc3Cl)s2)cc(N2CCN(CCO)CC2)n1 [dasatinib, N-(2-chloro-6-methyl-phenyl)-2-(6-(4-(2-hydroxyethyl)-piperazin-1-yl)-2-methylpyrimidin-4-ylamino)thiazole-5-carboxamide]
IC50: 1.1 nM
